This test concerns human pancreatic cancer cells (SW1990). In words: CCK8 cytotoxicity / proliferation assay, SW1990. To be noted: read-out: IC50 SW1990.

Broadly, the IC50 is the point on the concentration scale where inhibition reaches its midpoint.

Read-outs that look alike come from different tables or passages of the source.

Method: The SW1990, HT1080, and A375-S2 human tumor cell lines were obtained from ATCC (Manassas, VA, USA). […] SW1990, HT1080, and LO2 cells were cultured in DMEM medium with 10% fetal bovine serum (FBS). All of these cells were cultured at 37°C in a humidified atmosphere with 5% CO2. To estimate cell viability, cells (5000/well) were separately seeded in 96-well plates for 24 h at 37°C in a 5% CO2 incubator. […] All the experiments were performed in triplicate, and the mean absorbance values were calculated. The IC50 values of the compounds were derived from the mean OD values of the triplicate tests versus the drug concentration curves.
Cell proliferation was assessed by incubating them with Cell Counting Kit-8 reagents (Dojindo, Shanghai, China) for 24 h, 48 h, 72 h, 96 h at 37°C and measuring the absorbance at 450 nm. The experiment was performed in triplicate.

In the case of `O=C(Cc1ccccc1)Nc1nnc(CCSCCc2nnc(NC(=O)Cc3ccccc3)s2)s1` [BPTES, reference compound], the IC50 (CCK8, 48 h) came to 35.3 ± 0.67 µM.

Regarding `O=C(Cc1cccc(OC(F)(F)F)c1)Nc1ccc(CCCCc2nnc(NC(=O)Cc3ccccn3)s2)nn1` [CB-839, reference compound], where the note is “Homo sapiens, SW1990, 48 h”, the IC50 came to 13.1 ± 0.57 µM.

Source of the values: publication PMC5768343, “A natural inhibitor of kidney-type glutaminase: a withanolide from Physalis pubescens with potent anti-tumor activity” (Oncotarget, 2017).
